Structures can show the parent of a compound that is named as a salt. Where two headings read alike, the source gives them in different places.
How the values were obtained:
[1] = system: FeCl3-induced occlusive thrombus in rat carotid artery; test: Rat model of FeCl3-induced platelet-dependent arterial thrombosis; assay type: in vivo; settings: Rattus norvegicus, read-out: ED50 for thrombus prevention (dose that prevents complete thrombotic occlusion in 50% of animals)
Text: Rat Model of FeCl3-induced Platelet-dependent Arterial Thrombosis
Kurz, K. D., Main, B. W., and Sandusky, G. E., Thromb. […] In this model a platelet-rich, occlusive thrombus is formed in a segment of the rat carotid artery treated locally with a fresh solution of FeCl3 absorbed to a piece of filter paper. The FeCl3 is thought to diffuse into the treated segment of artery and cause de-endothelialization of the affected vessel surface. […] The effect of a test compound on the incidence of occlusive thrombus formation following the application of the FeCl3 is monitored by ultrasonic flowtometry and is used as the primary end point. The use of flowtometry to measure carotid artery blood flow, is a modification of the original procedure in which thermal detection of clot formation was employed. Kurz, K. D., Main, B. W., and Sandusky, G. E., Thromb.
Male Harlan Sprague Dawley rats (420-450 g) were acclimated at least 72 hours prior to use and fasted for 12 hours prior to surgery with free access to water. The animals were prepared, anesthetized with Nembutal followed by the insertion of catheters for blood pressure monitoring, drug and anesthesia delivery. The left carotid artery was isolated by making a midline cervical incision followed by blunt dissection and spreading techniques to separate a 2 cm segment of the vessel from the carotid sheath. A silk suture is inserted under the proximal and distal ends of the isolated vessel to provide clearance for the placement of a ultrasonic flow probe (Transonic) around the proximal end of the vessel. The probe is then secured with a stationary arm.
The test compound was administered as a single intravenous bolus at the doses outlined in Table 4 after placement of the flow probe and 5 minutes prior to the thrombogenic stimulus. At t=0, a 3 mm diameter piece of filter paper (Whatman #3) soaked with 10 microliters of a 35% solution of fresh FeCl3 (made up in water) was applied the segment of isolated carotid artery distal to the flow probe. Blood pressure, blood flow, heart rate, and respiration were monitored for 60 minutes.
The incidence of occlusion (defined as the attainment of zero blood flow) was recorded as the primary end point.
This allows a direct comparison of the antithrombotic efficacy of [3-[(benzylsulfonyl)amino]-2-oxo-1,2-dihydropyridyl]acetyl-L-argininal, with other antithrombotic agents which have also been evaluated in this model as described above. Table 5 lists the ED50 values for several well known anticoagulant agents in this model compared to [3-[(benzylsulfonyl)amino]-2-oxo-1,2-dihydropyridyl]acetyl-L-argininal.

[2] = system: clot formation on silk thread in A-V shunt; test: Multiple extracorporeal (A-V) shunt model in rats utilizing oral dosing; assay type: in vivo; settings: rat, read-out: ED50 value (dose that reduced the clot size by 50%)
Experimental: The compounds of Example 10 and 143 were evaluated in a multichamber A-V shunt model in rats. The A-V shunt model is one of the most common and generally used systems to evaluate antithrombotic compounds: Smith, J. R. and White, A. M. Br. J. Pharmacol., 77: 29-38 (1982). In this model a localized clot made up of primarily fibrin with some platelet and macrophage involvement (Shand, R. A. and Smith, J. R. and Wallis, R. B. Thromb. Res., 36: 223-232 (1984)), is formed on an artificial thrombogenic surface (typically a segment of silk or cotton thread) contained in a sialstic chamber which is part of an exteriorized shunt between the carotid artery and jugular vein. The procedure described in this Example is a modified A-V shunt model that allows for oral dosing of test agents and subsequent evaluation of efficacy over a two to three hour window in time.
Briefly, male Harlan Sprague Dawley rats (420-450 g) were acclimated at least 72 hours prior to use. The animals were fasted for 12 hours prior to surgery with free access to water. Unanesthetized animals were grouped into three or four dosage groups (six or seven animals per group) and administered test agents orally via gavage needle, at doses of 1.0, 3.0, 10 and 50 mg/kg for the compound of Example 10, and 3.0, 10 and 30 mg/kg for the Compound of Example 143. Immediately after oral dosing, animals were anesthetized with sodium pentobarbital (Nembutal) given intraperitoneally at a dose of 50 mg/kg body weight, and placed on a isothermal pad to maintain body temperature. The level of anesthesia was monitored every 15 minutes by neuro-response to a tail pinch, respiration and core temperature. The desired depth of surgical anesthesia was maintained by administering subsequent doses (5 mg/kg) intravenously. The left femoral artery was catheterized using standard procedures for blood pressure monitoring and blood sampling, with polyethylene tubing (PE50). The left femoral vein was catheterized with PE50 tubing for delivery of anethestic.
The exteriorized shunts were assembled by connecting two pieces of saline filled 12.5 cm PE90 tubing with a 6 cm piece of PE160 tubing containing a 6 cm piece of silk suture size 3 and clamped with hemostats. A small 0.5 cm portion of the silk thread protrudes from the junction of the chamber with the shunt. The left jugular vein and right carotid artery were catheterized with the ends of the PE90 shunt. The shunt was unclamped and blood allowed to flow from the carotid artery, through the chamber, and exit the shunt via the jugular vein. After 15 minutes, both sides of the chamber were clamped and the suture containing the clot removed following detachment of the arterial end of the chamber. The clot was immediately weighed and recorded. This procedure takes place at predetermined intervals (60, 90, 120, and 150 minutes after oral dosing) to allow assessment of efficacy over a large window in time. Four shunts were placed with flow initiated at 45, 75, 105, and 135 minutes after oral compound administration. Clot weight from the four shunts was the primary endpoint of the protocol. Blood pressure, heart rate core temperature and respiration were monitored continuously. Following termination of the experiment the animals were euthanized with a 120 mg/kg dose of Nembutal. One experiment was performed per animal.
ED50 values were calculated at 60, 90, 120, and 150 minutes after oral dosing of test compound. ED50 is that dose that reduced the clot size by 50%. […]

human plasmin = human plasmin (Homo sapiens, UniProt P00747); test: biochemical
Experimental: (§1) The ability of compounds of the present invention to act as a selective inhibitor of thrombin catalytic activity was assessed by determining the concentration of compound which inhibited the activity of this enzyme by 50%, (IC50), and comparing this value to that determined for all or some of the following related serine proteases: recombinant tissue plasminogen activator (rt-PA), plasmin, activated protein C, chymotrypsin, factor Xa and trypsin.
(§2) The buffer used for all assays was HBSA (10 mM HEPES, pH 7.5, 150 mM sodium chloride, 0.1% bovine serum albumin).
(§3) The assay for IC50 determinations was conducted by combining in appropriate wells of a Corning microtiter plate, 50 microliters of HBSA, 50 microliters of the test compound at a specified concentration (covering a broad concentration range) diluted in HBSA (or HBSA alone for VO (uninhibited velocity) measurement), and 50 microliters of the enzyme diluted in HBSA. Following a 30 minute incubation at ambient temperature, 50 microliters of the substrate at the concentrations specified below were added to the wells, yielding a final total volume of 200 microliters. The initial velocity of chromogenic substrate hydrolysis was measured by the change in absorbance at 405 nm using a Thermo Max® Kinetic Microplate Reader over a 5 minute period in which less than 5% of the added substrate was utilized. The concentration of added inhibitor which caused a 50% decrease in the initial rate of hydrolysis was defined as the IC50 value.
Plasmin catalytic activity was determined using the chromogenic substrate, S-2366 [L-pyroglutomyl-L-prolyl-L-arginine-p-nitroaniline hydrochloride], which was obtained from Pharmacia-Upjohn. The substrate was made up in deionized water followed by dilution in HBSA prior to the assay in which the final concentration was 300 micromolar (about 2.5-times Km). Purified human plasmin was obtained from Enzyme Research Laboratories, Inc. The enzyme was diluted into HBSA prior to assay in which the final concentration was […].

human aPC = target: T1, human aPC (Homo sapiens, UniProt P04070); test: biochemical; settings: 30 minute incubation
T1 construct: purchased Hematologic Technologies, Inc
Experimental: as §2
Following a 30 minute incubation at ambient temperature, 50 microliters of the substrate at the concentrations specified below were added to the wells, yielding a final total volume of 200 microliters.
Activated Protein C (aPC) Assay
aPC catalytic activity was determined using the chromogenic substrate, Pefachrome PC (delta-carbobenzloxy-D-lysine-L-prolyl-L-arginine-p-nitroaniline dihydrochloride), obtained from Pentapharm Ltd.). […] Purified human aPC was obtained from Hematologic Technologies, Inc. The enzyme was diluted into HBSA prior to assay in which the final concentration was 1.0 nM.

human alpha thrombin = target: T2, human alpha thrombin (Homo sapiens, UniProt P00734); test: Thrombin (fIIa) IC50 assay, chromogenic substrate Pefachrome t-PA; assay type: biochemical
T2 construct: Purified human alpha-thrombin; purchased Enzyme Research Laboratories, Inc
Experimental: as §1, §2, §3
Enzyme activity was determined using the chromogenic substrate, Pefachrome t-PA (CH3SO2-D-hexahydrotyrosine-glycyl-L-Arginine-p-nitroaniline, obtained from Pentapharm Ltd.). The substrate was reconstituted in deionized water prior to use. Purified human a-thrombin was obtained from Enzyme Research Laboratories, Inc. The buffer used for all assays was HBSA (10 mM HEPES, pH 7.5, 150 mM sodium chloride, 0.1% bovine serum albumin).
IC50 determinations were conducted where HBSA ([…]), a-thrombin (50 μl) and inhibitor (50 μl) (covering a broad concentration range), were combined in appropriate wells and incubated for 30 minutes at room temperature prior to the addition of substrate Pefachrome-t-PA (50 μl). The initial velocity of Pefachrome t-PA hydrolysis was measured by the change in absorbance at 405 nm using a Thermo Max® Kinetic Microplate Reader over a 5 minute period in which less than 5% of the added substrate was utilized. The concentration of added inhibitor which caused a 50% decrease in the initial rate of hydrolysis was defined as the IC50 value.

Human rt-PA (Activase) = target: T3, Human rt-PA (Activase) (Homo sapiens, UniProt P00750); test: biochemical; settings: 30 minute incubation
T3 construct: purchased Genentech Inc
Experimental: as §1, §2, §3
Recombinant Tissue Plasminogen Activator (rt-PA) Assay
rt-PA catalytic activity was determined using the substrate, Pefachrome t-PA (CH3SO2-D-hexahydrotyrosine-glycyl-L-arginine-p-nitroaniline, obtained from Pentapharm Ltd.). The substrate was made up in deionized water followed by dilution in HBSA prior to the assay in which the final concentration was 500 micromolar (about 3-times Km). Human rt-PA (Activase®) was obtained from Genentech Inc. The enzyme was reconstituted in deionized water and diluted into HBSA prior to the assay in which the final concentration was 1.0 nM.

[3] = 30 minute incubation, read-out: Plasmin IC50 (Table 3B)
[4] = 30 minute incubation, read-out: IC50 Plasmin (Table 2)
[5] = 1.0 nM enzyme, read-out: IC50 aPC (Table 2)
[6] = 1.0 nM enzyme, read-out: IC50 rt-PA (Table 2)

Chain of human plasmin (P00747 97-580): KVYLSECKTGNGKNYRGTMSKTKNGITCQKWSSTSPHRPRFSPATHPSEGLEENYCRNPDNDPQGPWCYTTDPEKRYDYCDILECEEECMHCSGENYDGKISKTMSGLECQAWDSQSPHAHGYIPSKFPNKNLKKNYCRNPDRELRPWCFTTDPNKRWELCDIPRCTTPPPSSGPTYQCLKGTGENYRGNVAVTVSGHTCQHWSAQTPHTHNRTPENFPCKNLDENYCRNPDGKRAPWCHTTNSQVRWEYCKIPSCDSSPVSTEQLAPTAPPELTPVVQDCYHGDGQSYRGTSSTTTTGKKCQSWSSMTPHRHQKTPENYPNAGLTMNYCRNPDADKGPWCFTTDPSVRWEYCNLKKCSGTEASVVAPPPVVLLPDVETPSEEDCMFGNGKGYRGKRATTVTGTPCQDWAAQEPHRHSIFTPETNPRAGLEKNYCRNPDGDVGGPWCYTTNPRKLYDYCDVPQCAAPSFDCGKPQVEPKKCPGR
Chain of human plasmin (P00747 581-810): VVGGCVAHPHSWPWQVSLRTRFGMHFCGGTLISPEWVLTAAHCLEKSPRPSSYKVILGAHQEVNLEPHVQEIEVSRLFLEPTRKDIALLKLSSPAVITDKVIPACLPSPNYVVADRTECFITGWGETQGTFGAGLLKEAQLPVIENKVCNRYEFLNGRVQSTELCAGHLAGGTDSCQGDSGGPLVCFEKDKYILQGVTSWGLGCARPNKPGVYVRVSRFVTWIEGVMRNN
T3 sequence (P00750 36-562): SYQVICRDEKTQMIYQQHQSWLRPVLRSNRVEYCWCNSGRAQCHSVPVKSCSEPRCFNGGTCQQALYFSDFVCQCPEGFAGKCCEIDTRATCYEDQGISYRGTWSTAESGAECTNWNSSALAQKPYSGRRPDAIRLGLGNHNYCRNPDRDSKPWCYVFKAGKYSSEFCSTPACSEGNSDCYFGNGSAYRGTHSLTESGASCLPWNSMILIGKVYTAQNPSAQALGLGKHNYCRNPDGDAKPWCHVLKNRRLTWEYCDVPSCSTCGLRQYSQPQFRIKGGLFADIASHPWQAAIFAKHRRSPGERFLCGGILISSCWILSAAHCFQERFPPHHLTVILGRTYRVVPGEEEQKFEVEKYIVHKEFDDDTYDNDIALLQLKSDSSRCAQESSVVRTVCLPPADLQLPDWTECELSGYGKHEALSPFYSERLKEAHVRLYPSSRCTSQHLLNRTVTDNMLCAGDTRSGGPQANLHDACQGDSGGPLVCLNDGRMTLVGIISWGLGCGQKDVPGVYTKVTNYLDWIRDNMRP
T1 sequence (P04070 43-197): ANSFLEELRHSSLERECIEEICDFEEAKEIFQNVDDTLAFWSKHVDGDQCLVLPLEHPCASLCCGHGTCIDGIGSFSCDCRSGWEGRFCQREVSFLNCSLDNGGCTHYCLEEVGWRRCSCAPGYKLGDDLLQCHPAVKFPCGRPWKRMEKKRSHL
T1 sequence (P04070 212-461): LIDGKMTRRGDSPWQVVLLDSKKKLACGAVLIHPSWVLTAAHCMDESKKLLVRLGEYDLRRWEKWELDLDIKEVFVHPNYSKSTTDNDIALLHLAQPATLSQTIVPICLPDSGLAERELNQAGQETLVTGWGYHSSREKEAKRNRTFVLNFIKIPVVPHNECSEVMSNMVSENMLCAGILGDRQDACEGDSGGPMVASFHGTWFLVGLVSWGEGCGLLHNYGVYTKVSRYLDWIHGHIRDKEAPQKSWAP

CC1CNc2c(cccc2S(=O)(=O)N[C@@H](CCCNC(=N)N)C(=O)N2CC[C@@H](C)C[C@@H]2C(=O)O)C1 (stereo partly drawn) [Argatroban, 2R,4R-4-methyl-1-[N-2-(3-methyl-1,2,3,4-tetrahydro-8-quinolinesulfonyl)-L-argininal]-2-piperdinecarboxylic acid, reference compound]
ED50 [1]: 3.8 mg/kg

N=C(N)NCCCC(C=O)NC(=O)Cn1cccc(NS(=O)(=O)Cc2ccccc2F)c1=O (centres unmarked) [Compound 121J]
ED50 ([2]; 1 h, 60 min after oral dose): 22 mg/kg
ED50 ([2]; 1.5 h, 90 min after oral dose): 20 mg/kg
ED50 ([2]; 2 h, 120 min after oral dose): 24 mg/kg
ED50 ([2]; 150 min after oral dose): 28 mg/kg

COc1ccc(OC)c(S(=O)(=O)Nc2ccc(C)n(CC(=O)N[C@H](C=O)CCCNC(=N)N)c2=O)c1 [Compound 126C, 3-[(2,5-dimethoxyphenyl)sulfonylamino-6-methyl-2-oxo-1,2-dihydro-pyridyl]acetyl-L-argininal]
IC50 (human plasmin; [3]): > 2500 nM
aPC IC50 (Table 3B) (human aPC): inactive
IC50 (human alpha thrombin): 0.519 nM
rtPA IC50 (Table 3B) (Human rt-PA (Activase)): inactive

CCc1ccc(NS(=O)(=O)c2cc(F)ccc2C)c(=O)n1CC(=O)N[C@H](C=O)CCCNC(=N)N [Compound 126F, [3-(5-fluoro-2-methylphenyl)sulfonylamino-6-ethyl-2-oxo-1,2-dihydro-pyridyl]acetyl-L-argininaln]
IC50 (human plasmin; [3]): ~2500 nM
aPC IC50 (Table 3B) (human aPC): inactive
IC50 (human alpha thrombin): 0.71 nM
rtPA IC50 (Table 3B) (Human rt-PA (Activase)): inactive

CS(=O)(=O)Nc1c(CCc2ccccc2)ccn(CC(=O)N[C@H](C=O)CCCNC(=N)N)c1=O [Compound 134B, [3-methylsulfonylamino-4-(2-phenylethyl)-2-oxo-1,2-dihydropyridyl]acetyl-L-argininal]
IC50 (human plasmin; read-out: Plasmin IC50 (Table 3B)): > 2500 nM
aPC IC50 (Table 3B) (human aPC): inactive
IC50 (human alpha thrombin): 7.95 nM
IC50 (Human rt-PA (Activase); read-out: rtPA IC50 (Table 3B)): > 2500 nM

COc1cccc(S(=O)(=O)Nc2ccc(C)n(CC(=O)N[C@H](C=O)CCCNC(=N)N)c2=O)c1 [Compound 153A, [3-(3-methoxylphenyl)sulfonylamino-6-methyl-2-oxo-1,2-dihydro-pyridyl]acetyl-L-argininal]
IC50 (human plasmin; 30 minute incubation, read-out: Plasmin IC50 (Table 3C)): > 2500 nM
IC50 (human aPC; read-out: aPC IC50 (Table 3C)): > 2500 nM
IC50 (human alpha thrombin; 30 minute incubation, read-out: Thrombin IC50 (Table 3C)): 0.456 nM
IC50 (Human rt-PA (Activase); read-out: rtPA IC50 (Table 3C)): > 2500 nM

N=C(N)NCCC[C@@H](C=O)NC(=O)Cn1cccc(NS(=O)(=O)c2ccccc2)c1=O [Compound B, (3-phenylsulfonylamino-2-oxo-1,2-dihydro-pyridyl)acetyl-L-argininal]
IC50 (human plasmin; [4]): > 2500 nM
IC50 (human aPC; [5]): > 2500 nM
IC50 (human alpha thrombin): 0.98 nM
IC50 (Human rt-PA (Activase); [6]): > 2500 nM

Cc1ncc(NS(=O)(=O)Cc2ccccc2)c(=O)n1CC(=O)N[C@H](C=O)CCCNC(=N)N [Compound D, (5-benzylsulfonylamino-2-methyl-6-oxo-1,6-dihydro-1-pyrimidinyl)acetyl-L-argininal, trifluoroacetate salt]
IC50 (human plasmin; [4]): > 2500 nM
IC50 (human aPC; [5]): > 2500 nM
IC50 (human alpha thrombin): 2.32 nM
IC50 (Human rt-PA (Activase); [6]): > 2500 nM

Reference: patent publication US6342504B1, “Aromatic heterocyclic derivatives as enzyme inhibitors” (priority 1994, dated 2002)
